Results on 5 molecules are retold here after patent US7214669B2, “Tetracycline derivatives and methods of use thereof” (Tetragenex Pharmaceuticals, Inc., priority 2001, dated 2007).

The target in one test is T1, MMP2 (Gelatinase A) (Homo sapiens, UniProt P08253).
T1 sequence (P08253 110-660): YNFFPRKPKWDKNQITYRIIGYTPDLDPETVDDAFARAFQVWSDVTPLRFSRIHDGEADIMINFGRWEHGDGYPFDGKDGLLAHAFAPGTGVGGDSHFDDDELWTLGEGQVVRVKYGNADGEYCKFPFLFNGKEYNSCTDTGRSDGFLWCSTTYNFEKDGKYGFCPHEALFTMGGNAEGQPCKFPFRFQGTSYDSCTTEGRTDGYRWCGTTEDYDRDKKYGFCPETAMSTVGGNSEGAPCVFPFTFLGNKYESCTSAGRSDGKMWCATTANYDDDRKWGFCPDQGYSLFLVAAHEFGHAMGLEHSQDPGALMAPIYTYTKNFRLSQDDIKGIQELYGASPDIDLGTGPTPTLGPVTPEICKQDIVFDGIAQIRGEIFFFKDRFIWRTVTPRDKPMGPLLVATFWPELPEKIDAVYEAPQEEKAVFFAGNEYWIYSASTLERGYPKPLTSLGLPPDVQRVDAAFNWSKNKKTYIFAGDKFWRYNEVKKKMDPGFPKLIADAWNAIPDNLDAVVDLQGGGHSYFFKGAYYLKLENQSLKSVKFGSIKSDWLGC
As to the kind of experiment: MMP2 (Gelatinase A) inhibition, 14C gelatin release. As to conditions: 37° C., 16 hours; read-out: MMP-2 inhibitory activity, IC50. The test is classed as biochemical.

Another test concerns the target T2, Human recombinant MMP7 (Homo sapiens, UniProt P09237).
T2 sequence (P09237 95-267): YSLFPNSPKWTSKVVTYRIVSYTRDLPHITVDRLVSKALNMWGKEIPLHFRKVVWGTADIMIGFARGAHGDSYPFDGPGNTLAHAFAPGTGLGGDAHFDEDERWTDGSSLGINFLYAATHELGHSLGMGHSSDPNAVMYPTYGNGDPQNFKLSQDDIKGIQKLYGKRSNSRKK
As to the kind of experiment: MMP7 (Matrilysin) inhibition, 14C casein release. In kind it is biochemical. The conditions noted are these: 37° C., 16 hours; read-out: MMP-7 inhibitory activity, IC50.

Test [1] deals with C8161 human melanoma cells. As to the kind of experiment: Membrane Invasion Culture System (MICS) chemo-invasion assay. In kind it is cell-based. As to conditions: 24 hours, + = increased invasiveness. The text has this:
(§1) Another objective was to analyze the effects of specific, tetracycline derived compounds on the in-vitro chemo-invasive potential of: • C8161 human melanoma cells • MDA-MB-231 human breast cancer cells • PC3 human prostate cancer cells • RPM18226 human myeloma cancer cells • Ark human myeloma cancer cells • Arp-1 human myeloma cancer cells
(§2) The Membrane Invasion Culture System (MICS) in vitro chemo-invasion assay was chosen to measure changes in the invasive potential of specific human cancer cells in response to tetracycline derived compounds. Stock solutions of each compound were hydrated in water containing 2% DMSO and pH 10.0. Upon solubilization, HCl was added to the solution to establish a pH of 7.5–8.0. This solution was then wrapped in foil and kept at 4° C. during the 24 hours of assay. Fresh compound was prepared for each assay. The in vitro chemoinvasion analyses for tumor cell invasiveness are performed using the Membrane Invasion Culture System (MICS) as previously described.
(§3) The MICS system is a thermally treated plastic manifold system consisting of two matched sets of plates containing fourteen wells, 13 mm in diameter. Interposed between these plates was a polycarbonate filter containing 10 μm pores and coated with a defined matrix composed of human laminin/collagen IV/gelatin that formed a 35 μm thick barrier between the top and bottom sections of the wells in MICS. Prior to placing this barrier in place, the lower wells were filled with serum-free RPMI culture medium made 50% in conditioned medium obtained from 2-day-old cultures of human fibroblasts which had been cleared of cells and cellular debris by either centrifugation, or filtering through a 0.45 μm sterile filter. The barrier was then placed on the lower wells and fresh serum-free medium added to the upper wells after assembly of the system. Fifty thousand tumor cells were then added to the wells either in the presence of the compound, or the DMSO vehicle (the controls). Of the 12 assay wells on each manifold, 3 randomized wells acted as controls, 3 wells received 1 μg/ml of compound, 3 received 10 μg/ml and 3 received 25 μg/ml. After 24 hours, cells and media were removed from the lower wells and replaced by phosphate buffered saline plus 2 mM EDTA. This solution was used to remove all cells from the lower well, and this wash was added to the recovered cells plus medium from the same well. These samples were then collected onto a polylysine containing polycarbonate membrane containing 3 μm pores using a Dot-Blot manifold system. These collection filters were then fixed in methanol, and stained using Wright's stain (Leukostat staining kit) in situ. The filters were then mounted on microscope slides with microscope immersion oil (which reduced the light refraction from the pores) and 5 microscopic fields were counted to calculate the number of cells which invaded through the membrane over the 24 hour period. These numbers were then statistically analyzed as discussed below.

Test [2] relates to RPMI-8226 human myeloma cancer cells. Described as above. As to conditions: 24 hours, + = increased invasiveness. The test is classed as cell-based.
Description: as §1, §2, §3

Test [3] concerns MDA-MB-231 human breast cancer cells. The test is described as above. In kind it is cell-based. The conditions noted are these: 24 hours, + = increased invasiveness.
Description: as §1, §2, §3

In test [4] the test system is PC-3 ML human prostate cancer cells. Described as above. The conditions noted are these: 24 hours, + = increased invasiveness. In kind it is cell-based.
Description: as §1, §2, §3

The target of another test is Human recombinant MMP3 (Homo sapiens, UniProt P08254). As to the kind of experiment: MMP3 (Stromelysin 1) inhibition, 14C casein release. The test is classed as biochemical. The conditions noted are these: 37° C., 16 hours; read-out: MMP-3 inhibitory activity, IC50.
Sequence of Human recombinant MMP3 (P08254 100-477): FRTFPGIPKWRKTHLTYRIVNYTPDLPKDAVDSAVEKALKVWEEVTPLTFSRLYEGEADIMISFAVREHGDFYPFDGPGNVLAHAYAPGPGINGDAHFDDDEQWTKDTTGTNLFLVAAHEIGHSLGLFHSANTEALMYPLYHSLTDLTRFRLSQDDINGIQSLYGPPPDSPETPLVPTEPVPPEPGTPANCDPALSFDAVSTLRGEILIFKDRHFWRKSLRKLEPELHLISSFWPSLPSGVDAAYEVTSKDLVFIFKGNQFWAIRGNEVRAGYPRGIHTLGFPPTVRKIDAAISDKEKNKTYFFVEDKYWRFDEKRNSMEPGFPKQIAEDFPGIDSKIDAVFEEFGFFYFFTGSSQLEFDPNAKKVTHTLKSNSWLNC
A further test addresses Human recombinant MMP9 (Homo sapiens, UniProt P14780). As to the kind of experiment: MMP9 (Gelatinase B) inhibition, 14C gelatin release. The test is classed as biochemical. As to conditions: 37° C., 16 hours; read-out: MMP-9 inhibitory activity, IC50.
A further test deals with Human recombinant MMP14 (Homo sapiens, UniProt P50281). As to the kind of experiment: MMP14 (MTI-MMP) inhibition, 14C collagen release. The test is classed as biochemical. As to conditions: 35° C., 15 hours; read-out: MMP-14 inhibitory activity, IC50.
The next test addresses T3, Human recombinant MMP1 (Homo sapiens, UniProt P03956).
T3 sequence (P03956 100-469): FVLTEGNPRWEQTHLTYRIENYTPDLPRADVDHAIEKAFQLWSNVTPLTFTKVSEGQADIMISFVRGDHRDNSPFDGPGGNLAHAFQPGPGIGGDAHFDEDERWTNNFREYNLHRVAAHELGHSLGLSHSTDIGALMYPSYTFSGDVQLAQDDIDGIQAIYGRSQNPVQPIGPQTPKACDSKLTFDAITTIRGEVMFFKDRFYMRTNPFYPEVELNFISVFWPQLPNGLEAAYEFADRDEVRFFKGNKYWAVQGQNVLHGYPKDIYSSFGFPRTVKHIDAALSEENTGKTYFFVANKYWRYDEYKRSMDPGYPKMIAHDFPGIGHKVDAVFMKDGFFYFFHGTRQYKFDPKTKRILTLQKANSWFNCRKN
Put plainly: MMP1 (Collagenase-1) inhibition, 14C collagen release. The test is classed as biochemical. The conditions noted are these: 35° C., 5 hours; read-out: MMP-1 inhibitory activity, IC50.

Structures are written as SMILES.

Sequence of Human recombinant MMP9 (P14780 94-707): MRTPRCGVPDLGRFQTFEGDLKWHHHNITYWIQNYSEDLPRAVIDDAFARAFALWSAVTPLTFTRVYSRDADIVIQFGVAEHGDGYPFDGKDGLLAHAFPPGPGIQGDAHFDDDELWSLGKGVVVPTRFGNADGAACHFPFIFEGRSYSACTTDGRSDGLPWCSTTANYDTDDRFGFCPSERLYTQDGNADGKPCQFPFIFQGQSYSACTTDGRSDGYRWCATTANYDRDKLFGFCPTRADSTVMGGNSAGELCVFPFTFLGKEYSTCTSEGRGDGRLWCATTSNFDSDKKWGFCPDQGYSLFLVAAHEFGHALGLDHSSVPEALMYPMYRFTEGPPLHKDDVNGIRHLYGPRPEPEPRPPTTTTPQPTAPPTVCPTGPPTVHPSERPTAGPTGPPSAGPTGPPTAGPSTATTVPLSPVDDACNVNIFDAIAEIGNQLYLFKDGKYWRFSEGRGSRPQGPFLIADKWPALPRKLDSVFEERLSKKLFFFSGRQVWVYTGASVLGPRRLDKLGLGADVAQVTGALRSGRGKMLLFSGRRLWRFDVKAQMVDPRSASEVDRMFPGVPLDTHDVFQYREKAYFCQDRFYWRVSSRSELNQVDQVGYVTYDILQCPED
Description for Human recombinant MMP9: Protocol for Measuring MMP9 (Gelatinase B) Inhibition
MMP9 activity was determined by the release of trichloracetic acid, TCA soluble fragments from ^14C acetylated rat skin type I (Methods in Enzymology 248, 470, 1995. Biochem. J. 195, 1981)
• 100 μg ^14C labelled gelatin (collagen denatured 60° C. 20 min) • 50 mM Tris HCl pH 7.9 • 15 mM CaCl2, 0.02% azide • Human recombinant MMP9, 1.2–2 nM • ±Tetracycline (up to 1 mM) in a total volume of 250 μl.
Incubations were at 37° C. for 16 hours. The incubations were stopped by cooling the incubations and addition of 50 μl cold 90% (w/v) trichloracetic acid with careful mixing. TCA precipitation was allowed to proceed for 15 minutes at 4° C. prior to centrifugation at 10,000 g for 10 minutes at 4° C. 200 μl of the TCA supernatant was taken for the determination of radioactive content by scintillation counting (Packard Opti Phase Supermix scintillation fluid). Only data derived from within the linear part of the assay (10–70% lysis) were utilized. The percentage inhibition of MMP9 by each tetracycline concentration were plotted to derive the IC50 value.

Broadly, the IC50 is the concentration that gives 50% inhibition. On to `CN(C)c1cc(N)c(O)c2c1CC1CC3C(N(C)C)C(O)=C(C(N)=O)C(=O)C3(O)C(O)=C1C2=O` (stereo not shown) [Compound 7, 9-Amino-7-dimethylamino-6-demethyl-6-deoxytetracycline H2SO4], for which the half-maximal inhibitory concentration (IC50) on MMP2 (Gelatinase A) is more than 1000 µM; on Human recombinant MMP7 it was 335 µM; on Human recombinant MMP3 it was 300 µM; at Human recombinant MMP9, 64 µM; at Human recombinant MMP14 it was more than 1000 µM. The figures for the “percent inhibition, C8161 (Melanoma)” value in test [1] (1 ug/mL), in test [1] (10 ug/mL) and in [1] (25 ug/mL) were 7%, 14% and 16%, respectively. Moreover, the entries for the “percent inhibition, RPMI-8226 (Multiple Myeloma)” value in test [2] (1 ug/mL), in [2] (10 ug/mL) and in test [2] (25 ug/mL) were “+14^B percent”, 12% and “+2%”, respectively. The “percent inhibition, MDA-MB-231 (Breast)” value in test [3] (1 ug/mL) is “+18%”; in test [3] (10 ug/mL), “+41^B percent”; in [3] (25 ug/mL), “+27%”. The “percent inhibition, PC-3 ML (Prostrate)” value in test [4] (1 ug/mL) was 0%; in test [4] (10 ug/mL), 0%; in test [4] (25 ug/mL), 3%.
On to `CC1c2cccc(O)c2C(=O)C2=C(O)C3(O)C(=O)C(C(N)=O)=C(O)C([N+](C)(C)C)C3C(O)C21.[I-]` (stereo not shown) [Compound 46, 6-deoxy-5-hydroxytetracycline-4-Methiodide], for which the IC50 on MMP2 (Gelatinase A) came to 3800 µM; on Human recombinant MMP1 it was 194 µM; at Human recombinant MMP3, 42 µM; on Human recombinant MMP9 it was 59 µM; on Human recombinant MMP14, 90 µM. The results for the “percent inhibition, C8161 (Melanoma)” value in test [1] (1 ug/mL), in [1] (10 ug/mL) and in test [1] (25 ug/mL) were 21%, 7% and 10%, respectively. In addition, the “percent inhibition, RPMI-8226 (Multiple Myeloma)” value in test [2] (1 ug/mL) is listed as 7%; in [2] (10 ug/mL) it was “+11%”; in test [2] (25 ug/mL) it was 12%. Moreover, the “percent inhibition, MDA-MB-231 (Breast)” value in test [3] (1 ug/mL) was 20^B percent; in test [3] (10 ug/mL), “+5%”; in test [3] (25 ug/mL), “+1%”. In addition, the “percent inhibition, PC-3 ML (Prostrate)” value in test [4] (1 ug/mL) is listed as 20%; in test [4] (10 ug/mL), 16%; in [4] (25 ug/mL) it was 27^B percent.
Regarding `CC1c2c(N(NC(=O)OCc3ccccc3)C(=O)OCc3ccccc3)ccc(O)c2C(=O)C2=C(O)C3(O)C(=O)C(C(N)=O)=C(O)C(N(C)C)C3C(O)C21.Cl` (stereo not shown) [Compound 47, 7-(1,2-benzylcarboxyhydrazine)-6-deoxy-5-hydroxy-tetracycline HCl], the IC50 on MMP2 (Gelatinase A) stood at 117 µM; on Human recombinant MMP1, 318 µM; on Human recombinant MMP3, 68 µM; at Human recombinant MMP9 it was 88 µM; at Human recombinant MMP14, 60 µM. The “percent inhibition, C8161 (Melanoma)” value in [1] (1 ug/mL) was “+30%”; in test [1] (10 ug/mL) it was “+4%”; in [1] (25 ug/mL), “+2%”. Also, the “percent inhibition, RPMI-8226 (Multiple Myeloma)” value in [2] (1 ug/mL) was 28%; in [2] (10 ug/mL), 18%; in test [2] (25 ug/mL) it was 60^B percent. The “percent inhibition, MDA-MB-231 (Breast)” value in [3] (1 ug/mL) was “+17%”; in [3] (10 ug/mL), “+16^B percent”; in test [3] (25 ug/mL), 0%. Besides, the “percent inhibition, PC-3 ML (Prostrate)” value amounted to 3% in test [4] (1 ug/mL), 3% in test [4] (10 ug/mL) and 5% in [4] (25 ug/mL).
As for `CC1c2c(N)cc(C(C)(C)C)c(O)c2C(=O)C2=C(O)C3(O)C(=O)C(C(N)=O)=C(O)CC3C(O)C21.O=S(=O)(O)O` (stereo not shown) [Compound 49, 7-Amino-9-tertbutyl-4-dedimethyl-6-deoxy-5-hydroxy-tetracycline-H2SO4], the concentration for half-maximal inhibition (IC50) at MMP2 (Gelatinase A) worked out at 1570 µM; on Human recombinant MMP1, 372 µM; at Human recombinant MMP3, 141 µM; on Human recombinant MMP9, 489 µM; at Human recombinant MMP14, 87 µM. The “percent inhibition, C8161 (Melanoma)” value is recorded as 27^B percent in test [1] (1 ug/mL), 7% in test [1] (10 ug/mL) and 30^B percent in test [1] (25 ug/mL). Further, the “percent inhibition, RPMI-8226 (Multiple Myeloma)” value in test [2] (1 ug/mL) is 11%; in test [2] (10 ug/mL), “+2%”; in test [2] (25 ug/mL) it was 15%. Besides, the figures for the “percent inhibition, MDA-MB-231 (Breast)” value in test [3] (1 ug/mL), in [3] (10 ug/mL) and in test [3] (25 ug/mL) were 6%, “+5%” and “+1%”, respectively. Also, the “percent inhibition, PC-3 ML (Prostrate)” value is 4% in test [4] (1 ug/mL), “+5%” in test [4] (10 ug/mL) and 6% in test [4] (25 ug/mL).
As to `CC1c2c([N+]#N)cc(C(C)(C)C)c(O)c2C(=O)C2=C(O)C3(O)C(=O)C(C(N)=O)=C(O)CC3C(O)C21` (stereo not shown) [Compound 50, 4-Dedimethylamino-9-tertbutyl-6-deoxy-5-hydroxytetracycline-7-diazonium H2SO4], the IC50 worked out at 2530 µM on MMP2 (Gelatinase A); 211 µM at Human recombinant MMP1; 48 µM on Human recombinant MMP3; 34 µM at Human recombinant MMP9; 40 µM on Human recombinant MMP14. Moreover, the “percent inhibition, C8161 (Melanoma)” value in [1] (1 ug/mL) is 5%; in test [1] (10 ug/mL), “+2%”; in test [1] (25 ug/mL), 1%. The “percent inhibition, RPMI-8226 (Multiple Myeloma)” value in [2] (1 ug/mL) is “+14%”; in test [2] (10 ug/mL), “+8%”; in [2] (25 ug/mL) it was “+13%”. In addition, the “percent inhibition, MDA-MB-231 (Breast)” value is listed as 7% in test [3] (1 ug/mL), 0% in [3] (10 ug/mL) and 2% in [3] (25 ug/mL). Further, the “percent inhibition, PC-3 ML (Prostrate)” value is on record as “+14%” in test [4] (1 ug/mL), “+17%” in [4] (10 ug/mL) and “+10%” in test [4] (25 ug/mL).
